Laboratory results as given in ChEMBL document CHEMBL1134880, “Quantum chemical- and 3-D-QSAR (CoMFA) studies of benzalacetones and 1,1,1-trifluoro-4-phenyl-3-buten-2-ones” (Bioorg Med Chem Lett, 2002).

The molecules below were run on Escherichia coli (assay: Inhibition of UV-induced mutagenesis in Escherichia coli WP2uvrA).
Type: functional, organism-based

First: CCOc1cccc(/C=C/C(C)=O)c1O
Second: COc1cccc(/C=C/C(C)=O)c1O
The IC50 of the first is 1.8-fold higher: 1200 µM for the first, 676 µM for the second.

First: N#Cc1ccc(/C=C/C(=O)C(F)(F)F)cc1
Second: O=C(/C=C/c1ccc(Cl)cc1)C(F)(F)F
The IC50 of the first is 1.6-fold higher: 25.1 µM for the first, 15.8 µM for the second.

Compared with `COc1ccc(/C=C/C(=O)C(F)(F)F)cc1`, `COc1ccc(/C=C/C(C)=O)cc1` is 21-fold higher in IC50: 74.1 µM for the first, 1580 µM for the second. The first is the more potent here.

`O=C(/C=C/c1cccc(Cl)c1)C(F)(F)F` and `N#Cc1cccc(/C=C/C(=O)C(F)(F)F)c1` are within 1.5-fold of each other in IC50: 24 µM for the first, 17 µM for the second.

First: CC(=O)/C=C/c1cccc(C#N)c1
Second: CC(=O)/C=C/c1cccc(C)c1
The IC50 of the first is 5.4-fold lower: 282 µM for the first, 1510 µM for the second.

`CC(=O)/C=C/c1ccccc1F` and `CC(=O)/C=C/c1ccccc1O` are within 1.5-fold of each other in IC50: 339 µM for the first, 229 µM for the second.

Compared with `CC(=O)/C=C/c1cccc([N+](=O)[O-])c1`, `O=C(/C=C/c1cccc([N+](=O)[O-])c1)C(F)(F)F` is 8.9-fold lower in IC50: 151 µM for the first, 17 µM for the second. The second is the more potent here.

`CC(=O)/C=C/c1ccccc1Cl` and `CC(=O)/C=C/c1ccccc1Br` are within 1.5-fold of each other in IC50: 525 µM for the first, 398 µM for the second.

Compared with `CC(=O)/C=C/c1ccc(C)cc1`, `CC(=O)/C=C/c1ccc(F)cc1` is 2.5-fold lower in IC50: 1580 µM for the first, 631 µM for the second. The second is the more potent here.

First: COc1cccc(/C=C/C(C)=O)c1
Second: CC(=O)/C=C/c1cccc(Br)c1
The IC50 of the first is 1.7-fold higher: 708 µM for the first, 407 µM for the second.

Going from `CC(=O)/C=C/c1ccc([N+](=O)[O-])cc1` to `CC(=O)/C=C/c1ccc(Br)cc1`, the IC50 rises from 83.2 µM to 525 µM (6.3-fold).

First: CC(=O)/C=C/c1cc(C)c(O)c(C)c1
Second: CC(=O)/C=C/c1cccc(C)c1O
The IC50 of the first is 4.6-fold higher: 1100 µM for the first, 240 µM for the second. The second is the more potent here.

Compared with `CC(=O)/C=C/c1cccc(C(F)(F)F)c1`, `CC(=O)/C=C/c1ccc(C(F)(F)F)cc1` is 2-fold lower in IC50: 219 µM for the first, 110 µM for the second. The second is the more potent here.

First: CC(=O)/C=C/c1cccc(F)c1
Second: CC(=O)/C=C/c1cccc(Cl)c1
The IC50 of the first is 1.7-fold lower: 257 µM for the first, 427 µM for the second.

Compared with `CCc1ccc(/C=C/C(C)=O)cc1`, `CC(=O)/C=C/c1ccc(Cl)cc1` is 3.7-fold lower in IC50: 1200 µM for the first, 324 µM for the second.

`O=C(/C=C/c1ccccc1Cl)C(F)(F)F` and `O=C(/C=C/c1ccccc1)C(F)(F)F` are within 1.5-fold of each other in IC50: 28.2 µM for the first, 30.2 µM for the second.

`CC(=O)/C=C/c1ccc(O)c(O)c1` and `CC(=O)/C=C/c1ccc(O)cc1` are within 1.5-fold of each other in IC50: 977 µM for the first, 1200 µM for the second.

In the case of `CC(=O)/C=C/c1ccc(C#N)cc1`, the IC50 is reported as 170 µM.
